From patent US20240148707A1, “MODULATION OF DRUG-DRUG INTERACTIONS OF VADADUSTAT” (Akebia Therapeutics, Inc., priority 2021, published 2024)
Like-named read-outs stand apart in the source and are kept apart here. Values belong to the molecule of their own block, whether it stands above or below them.

Assays:
Format in all cases: in vivo, human
[1] = [14C]-labeled Compound 1 metabolism and excretion study in healthy adult males; settings: healthy adult male (6), single oral 650 mg [14C]-labeled Compound 1
Source text: The urinary excretion rate of this drug and acyl glucuronide is less than 1% of the total radioactivity.

[2] = Phase I drug-drug interaction study with cyclosporine (Part 1, Arm 1)
Procedure: (§1) A phase I, open-label, 2-part study was conducted in healthy male and female subjects to evaluate the potential for interaction of cyclosporine (Part 1, Arm 1), probenecid (Part 1, Arm 2), and rifampin (Part 2) with vadadustat.
Subjects were randomized in a 1:1 ratio to 1 of 2 dosing sequences (A:B or B:A) to receive vadadustat 300 mg alone and vadadustat 300 mg in combination with oral cyclosporine 500 mg in a crossover design. Study drugs were administered in the morning after at least a 10-hour overnight fast. Subjects remained fasted for at least 4 hours post-dose. • Treatment A: a single oral dose of vadadustat (300 mg) administered as 2×150 mg tablets. • Treatment B: a single oral dose of vadadustat (300 mg) administered as 2×150 mg tablets co-administered with a single oral dose of cyclosporine (500 mg) administered as 5×100 mg capsules.
On the morning of Day 1, subjects received the first treatment (A or B). Following a 7-day washout, subjects crossed over to Period 2 to receive the second treatment of the dosing sequence (A or B) on Day 8.
On each dosing day (Day 1 and Day 8) blood samples for PK analysis were collected up to 48 hours post-dose. Subjects were discharged from the clinical research unit (CRU) on the morning of Day 10, after the final 48-hour post-dose PK sample had been collected. A follow-up phone call was conducted 30 days±2 days after the final dose.

[3] = Phase I drug-drug interaction study with probenecid (Part 1, Arm 2); settings: for increase in exposure (AUC): administered with multiple doses of probenecid vs vadadustat alone
Procedure: as §1
On the morning of Day 1, subjects received a single oral dose of vadadustat (300 mg) as 2×150 mg tablets after at least a 10-hour overnight fast and remained fasted for at least 4 hours post-dose. Following a 2-day washout (Days 1 to 2), subjects received 1 oral probenecid 500 mg tablet Q12 h for 4 days (Days 3 to 6). On days that probenecid was administered alone (Days 3, 4, and 6), probenecid was administered in a fasted state 1 hour prior to a standard breakfast and 1 hour prior to an evening meal or snack. On Day 5, probenecid was co-administered with a single dose of vadadustat (300 mg as 2×150 mg tablets) following at least a 10-hour fast. Subjects remained fasted for at least 4 hours after dosing.
On days vadadustat was administered (Day 1 and Day 5), blood samples for PK analysis were collected up to 48 hours postdose. In addition, on vadadustat dosing days, pooled urine samples were collected up to 24 hours post-dose. Subjects were discharged from the CRU on the morning of Day 7, after the final 48-hour post-dose PK sample had been collected. A follow-up phone call was conducted 30 days±2 days after the final dose.

[4] = Phase 1 drug-drug interaction study, vadadustat as perpetrator with adefovir (Arm 2); settings: for AUC(0-inf) / AUC(0-t) / Cmax: both sexes, human, plasma
Procedure: A Phase 1, open-label, fixed sequence study was conducted in healthy male and female subjects to evaluate vadadustat as a perpetrator of DDIs with digoxin and/or adefovir.
On the morning of Day 1, subjects received a single oral dose of adefovir 10 mg after at least a 10-hour overnight fast. Subjects remained fasted for at least 4 hours after dosing. Following a 3-day washout period, subjects received vadadustat 600 mg QD beginning on Day 4 for 5 days (Days 4-8). When administered alone, vadadustat was administered in the morning at least 30 minutes prior to breakfast. On Day 7 subjects received their morning dose of vadadustat 600 mg along with a single oral dose of adefovir 10 mg after at least a 10-hour overnight fast.

[5] = Phase 1 drug-drug interaction study, vadadustat as perpetrator with digoxin (Arm 1)
Procedure: A Phase 1, open-label, fixed sequence study was conducted in healthy male and female subjects to evaluate vadadustat as a perpetrator of DDIs with digoxin and/or adefovir. […] Subjects remained fasted for at least 4 hours after dosing. Following a 12-day washout period, subjects received vadadustat 600 mg QD beginning on Day 13 for 7 days (Days 13-19).

[6] = vadadustat 300 mg + cyclosporine 500 mg, single oral doses, fasted
[7] = vadadustat 300 mg alone, single oral dose, fasted
[8] = vadadustat 300 mg with vs without cyclosporine 500 mg
[9] = vadadustat 300 mg single dose + probenecid 500 mg Q12h (multiple doses), fasted
[10] = vadadustat 300 mg with vs without probenecid 500 mg Q12h
[11] = adefovir 10 mg with vs without vadadustat 600 mg QD
[12] = digoxin 0.5 mg single dose with vadadustat 600 mg QD (Day 16)
[13] = digoxin 0.5 mg with vs without vadadustat 600 mg QD

share of the total radioactivity (AUC0-∞) in plasma [1]: about 15%
AUCinf, geometric LSM, Treatment V + C [2, 6]: 39210 ng·h/mL
AUClast, geometric LSM, Treatment V + C [2, 6]: 38130 ng·h/mL
Cmax, geometric LSM, Treatment V + C [2, 6]: 3900 ng/mL
AUCinf, geometric LSM, Treatment V [2, 7]: 34480 ng·h/mL
AUClast, geometric LSM, Treatment V [2, 7]: 33430 ng·h/mL
Cmax, geometric LSM, Treatment V [2, 7]: 4500 ng/mL
AUCinf, Ratio (V + C)/V [2, 8]: 113.74%
AUClast, Ratio (V + C)/V [2, 8]: 114.04%
Cmax, Ratio (V + C)/V [2, 8]: 86.63%
changes in the Cmax and AUC values ([2]; vadadustat in combination with cyclosporine): no clinically relevant changes
increase in exposure (AUC) ([3]; listed as vadadustat-O-glucuronide): about 2 fold
increase in exposure (AUC) ([3]; listed as vadadustat-Oglucuronide): ~2 fold
change of Cmax values ([3]; in combination with probenecid): relatively unchanged
urinary excretion ([3]; in combination with probenecid): decreased
AUCinf, geometric LSM, Treatment V [3, 7]: 38240 ng·h/mL
AUClast, geometric LSM, Treatment V [3, 7]: 37410 ng·h/mL
Cmax, geometric LSM, Treatment V [3, 7]: 5590 ng/mL
AUCinf, geometric LSM, Treatment V + P [3, 9]: 86580 ng·h/mL
AUClast, geometric LSM, Treatment V + P [3, 9]: 83810 ng·h/mL
Cmax, geometric LSM, Treatment V + P [3, 9]: 6170 ng/mL
AUCinf, Ratio (V + P)/V [3, 10]: 226.39%
AUClast, Ratio (V + P)/V [3, 10]: 224.05%
Cmax, Ratio (V + P)/V [3, 10]: 110.38%
SMILES: O=C(O)CNC(=O)c1ncc(-c2cccc(Cl)c2)cc1O[C@@H]1O[C@H](C(=O)O)[C@@H](O)[C@H](O)[C@H]1O [Vadadustat-O-Glucuronide]

SMILES: Nc1ncnc2c1ncn2CCOCP(=O)(O)O [adefovir]
AUCinf, Ratio (V + A)/A [4, 11]: 114.70%
AUClast, Ratio (V + A)/A [4, 11]: 114.74%
Cmax, Ratio (V + A)/A [4, 11]: 95.15%
systemic exposure to adefovir ([4]; adefovir administered with vadadustat vs adefovir alone): relatively unchanged
AUC(0-inf) ([4]; oral, adefovir 10 mg single dose with vadadustat 600 mg QD (Day 7), read-out: AUCinf, geometric LSM, Treatment V + A): 230 ng·h/mL
AUC(0-t) ([4]; oral, adefovir 10 mg single dose with vadadustat 600 mg QD (Day 7), read-out: AUClast, geometric LSM, Treatment V + A): 227 ng·h/mL
Cmax ([4]; oral, adefovir 10 mg single dose with vadadustat 600 mg QD (Day 7), read-out: Cmax, geometric LSM, Treatment V + A): 17.1 ng/mL
AUC(0-inf) ([4]; adefovir 10 mg alone, single oral dose, fasted, read-out: AUCinf, geometric LSM, Treatment A): 201 ng·h/mL
AUC(0-t) ([4]; adefovir 10 mg alone, single oral dose, fasted, read-out: AUClast, geometric LSM, Treatment A): 198 ng·h/mL
Cmax ([4]; adefovir 10 mg alone, single oral dose, fasted, read-out: Cmax, geometric LSM, Treatment A): 17.9 ng/mL

AUC(0-t) ([5]; both sexes, human, plasma, oral, digoxin 0.5 mg single dose with vadadustat 600 mg QD (Day 16), read-out: AUClast, geometric LSM, Treatment V + D): 31.7 ng·h/mL
AUC(0-inf) ([5]; both sexes, human, plasma, digoxin 0.5 mg alone, single oral dose, fasted, read-out: AUCinf, geometric LSM, Treatment D): 36.3 ng·h/mL
AUC(0-t) ([5]; both sexes, human, plasma, digoxin 0.5 mg alone, single oral dose, fasted, read-out: AUClast, geometric LSM, Treatment D): 34.6 ng·h/mL
Cmax, geometric LSM, Treatment D ([5]; digoxin 0.5 mg alone, single oral dose, fasted): 2.46 ng/mL
AUCinf, geometric LSM, Treatment V + D [5, 12]: 33.19 ng·h/mL
Cmax, geometric LSM, Treatment V + D [5, 12]: 1.64 ng/mL
AUCinf, Ratio (V + D)/D [5, 13]: 91.37%
AUClast, Ratio (V + D)/D [5, 13]: 91.49%
Cmax, Ratio (V + D)/D [5, 13]: 66.92%
decrease of digoxin Cmax ([5]; digoxin and vadadustat coadministered vs digoxin alone): ~35%
total exposure (AUClast and AUCinf) to digoxin ([5]; digoxin following multiple doses of vadadustat vs digoxin alone): unchanged
SMILES: C[C@H]1O[C@@H](O[C@H]2[C@@H](O)C[C@H](O[C@H]3[C@@H](O)C[C@H](O[C@H]4CC[C@@]5(C)[C@H](CC[C@@H]6[C@@H]5C[C@@H](O)[C@]5(C)[C@@H](C7=CC(=O)OC7)CC[C@]65O)C4)O[C@@H]3C)O[C@@H]2C)C[C@H](O)[C@@H]1O [digoxin]
